PubChem BioAssay AID1645864 (Buhrlage Lab, Dana-Farber Cancer Institute and Novartis …, 2021)
Active and inactive are the calls of the source.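 The calls were made as follows: active = maximal inhibition of USP17 at or above 30% in the confirmation dose-response, a value not among the printed readouts; inactive = the rest.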

biological target: Ubiquitin carboxyl-terminal hydrolase 17-like protein 5 (Homo sapiens) (UniProt A8MUK1); experiment: ubiquitin-specific protease 17 inhibitors, concentration series, biochemical, verification of primary actives (AID 1645864); settings: purified USP17, ubiquitin-rhodamine cleavage fluorescence, 3 h
Sequence (A8MUK1 whole entry, looked up): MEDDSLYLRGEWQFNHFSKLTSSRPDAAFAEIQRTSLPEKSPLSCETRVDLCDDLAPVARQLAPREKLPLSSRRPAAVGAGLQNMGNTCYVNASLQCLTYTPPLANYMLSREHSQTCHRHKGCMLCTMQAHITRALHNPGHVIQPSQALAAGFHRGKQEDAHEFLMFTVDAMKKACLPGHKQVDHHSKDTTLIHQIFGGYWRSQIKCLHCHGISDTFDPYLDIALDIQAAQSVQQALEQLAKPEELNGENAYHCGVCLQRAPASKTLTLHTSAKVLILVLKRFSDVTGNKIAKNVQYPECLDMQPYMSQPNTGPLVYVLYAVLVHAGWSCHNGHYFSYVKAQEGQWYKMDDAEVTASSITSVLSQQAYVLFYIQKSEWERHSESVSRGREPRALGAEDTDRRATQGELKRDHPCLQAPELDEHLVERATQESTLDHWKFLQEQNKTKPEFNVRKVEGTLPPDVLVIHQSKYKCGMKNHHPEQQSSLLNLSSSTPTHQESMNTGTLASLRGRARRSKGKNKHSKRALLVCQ

IC50 | Compound
36.6 µM | N#Cc1ccccc1Cn1c(=O)n(Cc2ccco2)c(=O)c2ccccc21
> 50 µM (inactive) | Cn1cc(CCNC(=O)c2cc3ccccc3[nH]2)c2cccnc21
5.27 µM | CC(C)(C)C(=O)Nc1ccc(C(=O)Nc2cccc(-c3nnc(-c4ccccc4)o3)c2)cc1
> 50 µM (inactive) | Cc1nc(Nc2c3ccccc3nc3ccccc23)sc1C
22.3 µM | COc1ccc(C)cc1NC(=O)CSc1nc(C)nc2c1oc1ccccc12
27.2 µM | Cc1ccc2nc(CNC(=O)c3ccccc3-c3nc(-c4ccc(F)cc4)no3)[nH]c2c1
27.7 µM | COc1cccc(NC(=O)C2Cc3ccccc3N2C(=O)c2ccccc2)c1 (stereo not given)
> 50 µM (inactive) | COc1ccc(C2CC(c3ccccc3)N(C(=O)C3CC3)c3ncnn32)cc1 (stereo not given)
4.43 µM | CSc1ccccc1NC(=O)c1ccc(-n2cccn2)nn1
> 50 µM (inactive) | CC(=O)Nc1ccc(Cc2nc(-c3ccc4c(c3)nc(C)c(=O)n4C3CCCC3)no2)cc1
8.65 µM | COc1ccc(-c2nc3n(n2)C(CC(=O)Nc2cccc4ccccc24)C(=O)N3)cc1 (stereo not given)
11.9 µM | COc1cccc(NC(=O)CSc2nnc(-c3cc4cccc(OC)c4o3)n2C)c1
23.5 µM | COc1ccc(Cl)c(NC(=O)C2CC(=O)Nc3cc(-c4ccccc4)nn32)c1 (stereo not given)
37.8 µM | Cn1cc(-c2cnc(-c3cccc(F)c3)nc2)cc1C(=O)NCc1cccnc1
> 50 µM (inactive) | COc1ccc(C(C)NC(=O)c2cnc(-c3ccccc3)nc2-c2ccncc2)cc1 (stereo not given)
> 50 µM (inactive) | Cc1c(-c2ccccc2)oc2c(C(=O)OCC(=O)Nc3ccccc3F)cccc2c1=O
41.3 µM | CN(C)c1cc(-n2cnc(C(=O)NCc3ccccc3Cl)c2)ncn1
> 50 µM (inactive) | CCOc1ccccc1-c1nc(-c2nnn(Cc3ccccc3)c2C)no1
24.8 µM | COc1ccc(CCN2COc3c(cc(Cl)c4cccnc34)C2)cc1OC
18.3 µM | O=C(Nc1ccc(F)cc1F)NC1CCN(c2ccccc2)C1=O (stereo not given)
> 50 µM (inactive) | O=C(OCCCN1C(=O)c2cccc3c(N4CCCCC4)ccc(c23)C1=O)c1ccccn1
16 µM | CCN(CCCNC(=O)c1ccc(Cn2c(=O)[nH]c3ccccc3c2=O)cc1)c1ccccc1
19.5 µM | O=C(NC1(O)C(=O)c2ccccc2C1=O)c1ccc(-c2csnn2)cc1
19.1 µM | COc1cccc(N2C(=O)N(CC(=O)NCc3ccc(Cl)cc3)c3ccccc3S2(=O)=O)c1
43.1 µM | COc1cccc(-c2cc(=O)[nH]c(Nc3nc(C)c4ccccc4n3)n2)c1
4.02 µM | Cc1cc(C)c(NC(=O)CSc2nc3nccnc3c(=O)n2Cc2ccccc2Cl)c(C)c1

IC50 | Compound
> 50 µM (inactive) | Fc1ccc(CSc2nnc(-c3ccccn3)n2Cc2ccco2)cc1
> 50 µM (inactive) | O=C(NC1CCN(Cc2ccccc2)CC1)c1[nH]nc2c1COc1ccccc1-2
1.65 µM | COc1cc2c(cc1OC)-c1cc(Nc3ccc(Br)cc3)nc(=O)n1CC2
36 µM | COc1ccc(NC(=O)Cn2c(CSc3ccc(C)cc3)nc3ccccc32)cc1
27.2 µM | Cc1nnc(C(=O)Nc2ccc(C(=O)NCc3ccccc3C)cc2)s1
> 50 µM (inactive) | Cc1ccccc1-c1noc(-c2ccccc2OCC(=O)NC(C)C)n1
5.68 µM | COc1ccccc1-c1nc2c3c(ncn2n1)Oc1c(c(C)nn1-c1ccccc1)C3c1cccnc1 (stereo not given)
10.7 µM | Cc1cccc(NC(=O)Nc2nnc(CC(=O)NCc3ccccc3)s2)c1
7.06 µM | Cc1ccc2nc(-c3cccc(-c4nc5ccc(C)cc5[nH]4)n3)[nH]c2c1
> 50 µM (inactive) | Cc1nc(-c2cccc(NC(=O)c3ccccc3Cl)c2)no1
> 50 µM (inactive) | CC(C)Cn1cc(OC(=O)c2ccc(F)cc2)c2c1nc(-c1ccc(F)cc1)n1c3ccccc3nc21
> 50 µM (inactive) | COc1cnc(-c2ccccn2)nc1Sc1ccc(C)cc1
29.5 µM | N#C/C(=C\c1ccc(OCc2cccc(C(=O)O)c2)cc1)c1ccc(F)cc1
> 50 µM (inactive) | COc1ccc(NC(=O)CSc2nnc(Cc3cccc4ccccc34)n2C)cc1
> 50 µM (inactive) | C[C@H](NC(=O)Cc1ccccc1F)c1nc2cc(-c3ccccc3F)ncn2n1
> 50 µM (inactive) | COc1cccc2c1OCC(C(=O)NCc1ccc(F)cc1)=C2
> 5 µM (inactive) | O=C(NCc1nc(-c2ccc3c(c2)[nH]c(=O)n3C2CCCC2)no1)c1ccccc1
5.03 µM | Cc1cccc(CNC(=O)c2ccc(-c3nnc(-c4cccc(C)c4)o3)cc2)c1
> 50 µM (inactive) | Nc1c(-c2ccc(Cl)cc2)cnc2nc(Sc3ncc(C(F)(F)F)cc3Cl)nn12
28.1 µM | O=C(Cc1cc(-c2ccccc2)on1)NCc1c(F)cccc1F
> 50 µM (inactive) | COc1ccc(C(=O)Nc2ccc3c(c2)C(=O)N(C)c2ccccc2O3)cc1
> 50 µM (inactive) | COc1ccc(CCn2cnc3c4ccccc4n(C)c3c2=O)cc1OC
4.26 µM | CCOc1ccc(-c2ccc3nnc(SCC(=O)Nc4cccc(C(C)=O)c4)n3n2)cc1
44 µM | CN(Cc1ccccc1)S(=O)(=O)c1ccc(S(=O)(=O)N2CCN(C(=O)c3cccnc3)CC2)cc1
2.74 µM | CCOc1ccc(NC(=O)Cn2cc(C(=O)c3ccc(Cl)cc3)c(=O)c3cc(OC)ccc32)cc1
34.1 µM | Cc1cccc(-n2nc(C)c3c2NC(=O)CC3C(=O)c2cc3ccccc3o2)c1 (stereo not given)

More lines, now with the values behind:

Compound | IC50
Cc1ccc(C)c(NS(=O)(=O)c2cc(-c3cnc(C4CC4)o3)ccc2C)c1 | 42.7 µM
O=C(c1ccnn1-c1ccc2ccc(-c3ccncc3)cn12)N1CCCC1 | > 50 µM (inactive)
CCC(C)Oc1cccc(C(=O)Nc2ccc(CN3CCOCC3)cc2)c1 (stereo not given) | > 50 µM (inactive)
Cc1ccc(NC(=O)Cc2nnc3cc(-c4nc(C)no4)ccn23)cc1 | 18.7 µM
Fc1ccc(Oc2nc(CN3CCOCC3)nc3sc4c(c23)CCCC4)c(Cl)c1 | > 50 µM (inactive)
O=C(NCc1ccc2c(c1)OCO2)c1cc2c(s1)-c1ccccc1OC2 | 3.99 µM
C/C1=C/CC(O)/C=C/C(C)C(O)C(C)/C=C(\C)C(=O)c2c(O)c(C)cc3c2C(=O)C(Cl)=C(NC(=O)\C=C/C=C/C=C\C(C)C(O)CC1=O)C3=O (stereo not given) | 20.2 µM
CCOC(=O)c1cc2c(ccn2C)n1CC(=O)N1CCc2ccccc2C1 | > 50 µM (inactive)
O=C(Nc1cc(F)c2nc(N3CCOCC3)ccc2c1)c1ccc(Br)o1 | 42.2 µM
O=C(Nc1ccc(SCc2nnc(-c3ccccc3)o2)cc1)C1CC1 | > 50 µM (inactive)
NS(=O)(=O)c1ccc(CNS(=O)(=O)c2ccc(-c3ccccn3)s2)cc1 | 23.2 µM
C/C=C1/C2=CCCN3C(=O)O[C@H]([C@H]1O)[C@H]23 | 1.42 µM
NS(=O)(=O)c1cccc(NS(=O)(=O)c2ccc(/C=C/C(=O)OCC(=O)c3ccc(Br)cc3)cc2)c1 | > 50 µM (inactive)
O=C(CCCCn1c(=O)[nH]c2ccccc2c1=O)Nc1cccc(Cl)c1 | 19.4 µM
CCOc1ccc(NC(=O)Cn2c(=O)n(CC(=O)NCc3ccc(C)cc3)c(=O)c3sccc32)cc1 | 3.97 µM
O=C(COC(=O)Cn1cnc2ccccc21)Nc1ccc2c(c1)OCCO2 | > 50 µM (inactive)
CCC(CC)n1[nH]c(=O)c2c1NC(=O)CSC2c1ccc2c(c1)OCO2 (stereo not given) | 18.5 µM
O=C(CSc1ncnc2c1sc1cccc(F)c12)N1CCCCCC1 | > 50 µM (inactive)
CCCc1nc2sc3c(NC4CCCCC4)ncnc3c2c2c1CCC2 | > 50 µM (inactive)
Cc1cc(C)cc(-n2ccnc(SCC(=O)Nc3cccc(Cl)c3)c2=O)c1 | 28.3 µM
Cc1nc(N2CCCC2)ncc1C(=O)Nc1ccc(F)c(F)c1 | 32.3 µM
Cc1cccc(C(=O)N2CCN3Cc4ccccc4N(C)CC3C2)c1 (stereo not given) | > 50 µM (inactive)
O=C(Cn1cncc(C(=O)NC2CCCC2)c1=O)Nc1cccc(F)c1 | 19 µM
O=C(Nc1ccc2c(c1)OCCO2)c1cc(CN2CCOCC2)on1 | > 50 µM (inactive)

Compound | IC50
NC(=O)c1ccc(NC(=O)Cc2cc(-c3ccc(Cl)cc3)on2)cc1 | > 50 µM (inactive)
CC1=C(c2ccc(Cl)cc2)S(=O)(=O)NC1=NCC(=O)Nc1ccc(F)cc1 | 20.3 µM
Cc1cc(O)cc2cc3c(c(O)c12)C(=O)CCC3O (stereo not given) | > 50 µM (inactive)
Cc1ccc(NC(=O)c2ccc3c(c2)N(S(C)(=O)=O)CC3)cc1 | 38.3 µM
CCN(CC)C(=O)c1sc(NC(=O)/C=C/c2c(F)cccc2Cl)c(C#N)c1C | 2.29 µM
O=C(COC(=O)CCc1ccc(S(=O)(=O)N2CCOCC2)cc1)Nc1ccc2c(c1)OCCO2 | > 50 µM (inactive)
O=C(Nc1ccc2c(c1)OCO2)C1CCN(Cc2nc3ccccc3s2)CC1 | > 50 µM (inactive)
Cc1cc(O)c2c3c(c(O)c4c(c13)O[C@@H](C)C4(C)C)C(=O)C2=O | 24.5 µM
O=C1c2c(O)c(Cl)cc3c2[C@@]2(Oc4cc(Cl)c(O)c5c4[C@]3(O2)[C@@H]2O[C@@H]2C5=O)[C@@H]2O[C@H]12 | 0.411 µM
Cc1cc(=O)c2c(O)oc(O)c3c(O)cc(=O)c1c32 | 24.4 µM
O=C(Nc1ccc(Cl)cc1)Nc1cccn2ncnc12 | 21.7 µM
O=C(COC(=O)c1cc(Cl)ccc1O)Nc1ccc2c(c1)OCCO2 | 29.2 µM
Cc1cc(O)c(=O)cc2c1C[C@H]1CC(C)(C)/C=C/C[C@@]3(C)Oc4cc(=O)c(O)cc(C)c4C[C@@H]3C[C@H](O)[C@]1(C)O2 | > 50 µM (inactive)
COC(=O)c1sc2ccccc2c1NC(=O)c1ccc(Br)s1 | 20.6 µM
CCn1c(SCc2cccc(C)c2)nnc1-c1cnccn1 | > 50 µM (inactive)
CC1=C(c2ccc(F)cc2)S(=O)(=O)NC1=NCC(=O)Nc1ccc(F)cc1F | 25.9 µM
CCc1noc(-c2ccc(OCC(=O)Nc3ccc(C)cc3C)cc2)n1 | 30.5 µM
CCCC1Cc2c(sc3nc(SCC)nc(N)c23)CO1 (stereo not given) | 7.76 µM
O=[N+]([O-])c1ccc(NCC2COc3ccccc3O2)c(Cl)c1 (stereo not given) | > 50 µM (inactive)
Cc1ccc(C(=O)Nc2cc3c4c(c2)CC(=O)N4CCC3)cc1C | > 50 µM (inactive)
O=C(O)c1nccnc1C(=O)N1CCc2ccccc2C1 | > 50 µM (inactive)
Cc1cc(C(F)(F)F)n(-c2ccc(NC(=O)Nc3cccc(C(F)(F)F)c3)cc2)n1 | 15.4 µM
COCCNC(=O)c1ccn(-c2ccc3ccc(-c4cnn(C)c4)cn23)n1 | > 50 µM (inactive)
CC(C)CC[C@H]1O[C@@H](CC(=O)O)Cc2cc3c(c(O)c21)C(=O)c1sc(=O)n(C)c1C3=O | 0.194 µM
